How the values were obtained:
[1] = Optical properties: relative fluorescence quantum yield with reference to Rhodamine B; format: physicochemical; settings: for fluorescence quantum yield (Φfl): relative to Rhodamine B
Protocol: The optical properties of the compound synthesized in the above Synthesis Examples were evaluated. The results are illustrated in FIG. 4.
(§1) (a to c) of FIG. 4 illustrate chemical structures of tetramethylrhodamine (TMR) (a), 4-Cl TMR (b) and 4,5-diCl TMR (c), the fluorescence quantum yields (Φf1) in MeOH containing 0.1% TFA, absorption maximum (λabs) and emission maximum (λem). Φf1 is a relative fluorescence quantum yield determined with reference to Rhodamine B (Φf1=0.65) of EtOH.
(d to f) of FIG. 4 illustrates absorption spectra and emission spectra of 1 μM TMR (d), 4-Cl TMR (e) and 4,5-diCl TMR (f) in MeOH containing 0.1% TFA and 0.1% DMSO.
as §1, with “6” for “4”, “2-Cl TMR” for “tetramethylrhodamine (TMR)”, “2-Me” for “4-Cl”, “2-F” for “4,5-diCl”, “(Oni)” for “(Φf1)”
(d to f) of FIG. 6 illustrates the absorption spectra and the emission spectra of 1 μM 2-Cl TMR (a), 2-Me TMR (b) and 2-F TMR (c) in MeOH containing 0.1% TFA and 0.1% DMSO.
(a) of FIG. 7 illustrates Φf1, λabs and λem of 2-Cl triMe rhodamine in MeOH containing 0.1% TFA. (b) of FIG. 7 illustrates the absorption spectrum and the emission spectrum of 1 μM 2-Cl triMe rhodamine in MeOH containing 0.1% TFA.

[2] = Solvent viscosity dependence of the fluorescence quantum yield; format: physicochemical
Protocol: Next, in order to examine whether the non-fluorescence of the newly developed non-fluorescent rhodamine was due to the production of the TICT state, solvent viscosity dependence of the fluorescence quantum yield was examined. Specifically, the absorption, fluorescence spectrum and fluorescence quantum yield were measured in three types of solvents including MeOH (εr=32.6, η=0.61 cP), ethylene glycol (εr=38.7, η=19.9 cP) and glycerol (εr=42.5, η=1412 cP). […] It was expected that if the formation of the TICT state was promoted by the steric hindrance due to the introduction of the substituent, while quenching was performed by the formation of the TICT state in MeOH, in a highly viscous solvent such as glycerol, a rate of intramolecular twist became slow, and the transition to the TICT state was suppressed, so that the fluorescence quantum yield would increase.
(a) of FIG. 5 is Φf1 of 4-Cl TMR in glycerol, ethylene glycol and MeOH. Φf1 is a relative fluorescence quantum yield determined with reference to Rhodamine B (Φf1=0.65) of EtOH. (b and c) of FIG. 5 illustrate the absorption spectrum (b) and the emission spectrum (c) of 1 μM 4-Cl TMR in glycerol, ethylene glycol and MeOH.

CYP1A2 = target: T1, CYP1A2 (Homo sapiens, UniProt P05177); settings: literature (Stresser et al. 2002); cited from earlier work
T1 sequence (P05177 1-516): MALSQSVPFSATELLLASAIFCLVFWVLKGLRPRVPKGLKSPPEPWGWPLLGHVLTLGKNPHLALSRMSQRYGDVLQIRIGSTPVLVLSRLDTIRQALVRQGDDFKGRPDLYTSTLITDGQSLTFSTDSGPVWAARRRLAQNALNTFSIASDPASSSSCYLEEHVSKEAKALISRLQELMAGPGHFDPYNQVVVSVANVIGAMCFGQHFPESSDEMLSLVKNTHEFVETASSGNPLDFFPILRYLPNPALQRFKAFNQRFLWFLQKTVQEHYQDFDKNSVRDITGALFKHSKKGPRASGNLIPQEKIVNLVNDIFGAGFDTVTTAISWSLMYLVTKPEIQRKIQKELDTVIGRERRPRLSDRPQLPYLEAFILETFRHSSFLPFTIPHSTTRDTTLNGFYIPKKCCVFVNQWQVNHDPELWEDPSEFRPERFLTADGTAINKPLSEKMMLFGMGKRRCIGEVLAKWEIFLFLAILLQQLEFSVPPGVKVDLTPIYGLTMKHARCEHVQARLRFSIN

CYP3A = settings: literature statement; cited from earlier work
CYP3A4 = CYP3A4 (Homo sapiens, UniProt P08684); assay: Absorption/fluorescence spectrum changes on reaction with CYP3A4; format: biochemical; settings: 1 μM compound, CYP3A4 10 nM
CYP3A4, sequence (P08684 whole entry): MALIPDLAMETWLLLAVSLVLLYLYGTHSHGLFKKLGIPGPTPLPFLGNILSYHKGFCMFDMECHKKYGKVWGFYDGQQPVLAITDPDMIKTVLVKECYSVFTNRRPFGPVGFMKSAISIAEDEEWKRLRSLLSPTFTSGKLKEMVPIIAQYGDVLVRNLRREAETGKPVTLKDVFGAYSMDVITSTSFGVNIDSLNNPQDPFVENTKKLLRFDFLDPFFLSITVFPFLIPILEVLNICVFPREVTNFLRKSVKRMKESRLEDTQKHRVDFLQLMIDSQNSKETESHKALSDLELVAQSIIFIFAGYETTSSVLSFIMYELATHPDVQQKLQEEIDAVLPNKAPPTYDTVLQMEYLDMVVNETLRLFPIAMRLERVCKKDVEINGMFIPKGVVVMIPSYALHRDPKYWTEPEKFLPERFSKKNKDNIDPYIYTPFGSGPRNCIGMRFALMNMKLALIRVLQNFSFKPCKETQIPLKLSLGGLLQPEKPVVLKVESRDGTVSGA
Source text: Next, as a representative of the compounds illustrated in FIG. 15, absorption/fluorescence spectrum changes when Compound 29 (illustrated below) was reacted with CYP3A4 were shown (FIG. 16).

CYP3A activity of HepaRG = assay: Fluorescence imaging of CYP3A activity in living HepaRG cells; format: cell-based; settings: 1 μM compound, 37° C. 30 minutes; control and rifampicin groups versus ketoconazole group
Protocol: HepaRG (registered trademark) frozen vial 8M (HPR116-8M) purchased from KAC Co., Ltd. was thawed and inoculated according to the manufacturer's protocol, and cultured for 6 days in an 8-well chamber (Matsunami: SCC-038 collagen coat). Then, it was examined whether Compound 29 could detect the CYP3A activity of HepaRG.
Imaging was performed on three types of control group, inhibitor-added group, and derivative-added group.
Ketoconazole was used as an inhibitor. Rifampicin was used as an inducer of the CYP3A activity. […]
Here, FIG. 18 illustrates a fluorescence image (control) of HepaRG obtained when HepaRG to which 0.1% DMSO was added for 3 days was pretreated with 0.1% DMSO for 30 minutes, then 1 μM of Compound 29 was added, and the mixture was incubated at 37° C. for 30 minutes, a fluorescence image (+ inhibitor) of HepaRG obtained when 0.1% DMSO was added for 3 days and pretreated with 1 μM ketoconazole for 30 minutes before imaging, then Compound 29 was added, and the mixture was incubated at 37° C. for 30 minutes, and a fluorescence image obtained when 20 μM rifampicin were added for 3 days and was pretreated with 0.1% DMSO for 30 minutes, then Compound 29 was added, and the mixture was further incubated at 37° C. for 30 minutes. […]

[3] = tested on: CYP3A in human liver microsomes; assay: Time-dependent fluorescence change with human liver microsomes and NADPH producing system
Protocol: The human liver microsomes and the NADPH producing system were pre-incubated with 0.1% DMSO or 10 μM ketoconazole for 30 minutes before addition of Compound 29, and the measurement was started immediately after addition of Compound 29.

[4] = in EtOH; cited from earlier work

CN(C)c1ccc2c(-c3ccccc3C(=O)O)c3cc(Cl)c(=[N+](C)C)cc-3oc2c1 [2-Cl TMR, 2-ClTMR]
fluorescence behaviour (in words) ([1]; MeOH containing 0.1% TFA): exhibited non-fluorescence

C/N=c1\cc2oc3cc(N(C)C)ccc3c(-c3ccccc3C(=O)O)c-2cc1Cl [2-Cl triMe rhodamine]
fluorescence quantum yield ([1]; MeOH containing 0.1% TFA): 15%

CN(C)c1ccc2c(-c3ccccc3C(=O)O)c3cc(F)c(=[N+](C)C)cc-3oc2c1 [2-F TMR, 2-FTMR]
fluorescence quantum yield ([1]; MeOH containing 0.1% TFA): about 10%

Cc1cc2c(-c3ccccc3C(=O)O)c3ccc(N(C)C)cc3oc-2cc1=[N+](C)C [2-Me TMR, 2-MeTMR]
fluorescence quantum yield ([1]; MeOH containing 0.1% TFA): about 1%

Cc1ccccc1-c1c2ccc(=[N+](C)C)c(Cl)c-2oc2c(Cl)c(N(C)C)ccc12 [4,5-diCl TMR, 4,5-diClTMR]
fluorescence quantum yield (Φfl) ([1]; MeOH containing 0.1% TFA): 0.001

COc1cccc(OC)c1C1=C2C=CC(=[N+](C)C)C(Cl)=C2[Si](C)(C)c2c1ccc(N(C)C)c2Cl [4,5-diCl TMSiR]
fluorescence quantum yield ([1]; Si-rhodamines, Example 5): ≤ 0.1%

Cc1ccccc1-c1c2ccc(=[N+](C)C)c(Cl)c-2oc2cc(N(C)C)ccc12 [4-Cl TMR, 4-ClTMR]
fluorescence quantum yield (Φfl) ([2]; MeOH (η=0.61 cP)): 0.003
fluorescence quantum yield (Φfl) ([2]; ethylene glycol (η=19.9 cP)): 0.01
fluorescence quantum yield (Φfl) ([2]; glycerol (η=1412 cP)): 0.09
fluorescence quantum yield (Φfl) ([1]; MeOH containing 0.1% TFA): 0.003

Cc1ccccc1C1=C2C=CC(=[N+](C)C)C(Cl)=C2[Si](C)(C)c2cc(N(C)C)ccc21 [4-Cl TMSiR]
fluorescence quantum yield ([1]; Si-rhodamines, Example 5): 1%

O=c1cc(C(F)(F)F)c2ccc(OCc3ccccc3)cc2o1 [BFC, 7-benzyloxy-4-trifluoromethylcoumarin]
metabolism by CYP1A2 (CYP1A2): metabolized to some extent by CYP1A2
metabolism by CYP3A (CYP3A): metabolized by CYP3A

c1ccc(COc2ccc3cccnc3c2)cc1 [BQ, 7-benzyloxyquinoline]
metabolism by CYP1A2 (CYP1A2): metabolized to some extent by CYP1A2
metabolism by CYP3A (CYP3A): metabolized by CYP3A

CCCCCOCC/[N+](C)=c1/cc2oc3cc(N(C)C)ccc3c(-c3ccccc3C(=O)O)c-2cc1C [Compound 29]
change of absorption on reaction with CYP3A4 (CYP3A4; pH 7.4): Shortening the absorption wavelength
change of fluorescence intensity on reaction with CYP3A4 (CYP3A4; pH 7.4, excitation 520 nm): significant increase in fluorescence intensity
detection of CYP3A activity in living cells by fluorescence (CYP3A activity of HepaRG): could detect the CYP3A activity even in living cells
fluorescence change on reaction with human liver microsomes ([3]; pH 7.4): showed the increase in fluorescence

CCN(CC)c1ccc2c(-c3ccccc3C(=O)O)c3ccc(=[N+](CC)CC)cc-3oc2c1.[Cl-] [Rhodamine B]
fluorescence quantum yield (Φfl) of the reference [4]: 0.65

CC(=O)N1CCN(c2ccc(OCC3COC(Cn4ccnc4)(c4ccc(Cl)cc4Cl)O3)cc2)CC1 (stereo not shown) [ketoconazole, reference compound]
effect of inhibitor on the fluorescence increase of Compound 29 in human liver microsomes ([3]; 10 μM ketoconazole pre-incubated 30 minutes): suppressed

Cc1ccccc1-c1c2ccc(=[N+](C)C)cc-2oc2cc(N(C)C)ccc12 [reference compound]
fluorescence quantum yield (Φfl) ([1]; MeOH containing 0.1% TFA): 0.399
